This is an account of results in patent US11786606B2, “Site-specific quantitation of drug conjugations” (Regeneron Pharmaceuticals, Inc., priority 2019, dated 2023).

The target of the experiment is T1, papain (Carica papaya, UniProt P00784).
T1 sequence (P00784 134-345): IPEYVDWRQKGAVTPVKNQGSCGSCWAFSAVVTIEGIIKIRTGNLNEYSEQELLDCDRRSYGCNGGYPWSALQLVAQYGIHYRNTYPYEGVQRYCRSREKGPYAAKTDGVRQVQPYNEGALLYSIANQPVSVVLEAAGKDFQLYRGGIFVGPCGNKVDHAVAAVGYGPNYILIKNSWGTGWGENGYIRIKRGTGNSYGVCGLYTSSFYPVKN
Put plainly: Papain digestion to remove drug payloads from ADC linkers, monitored by LC-MS peak areas of surrogate peptides. It is filed as biochemical. Particulars: papain to substrate ratio 1:200; peak areas of peptides containing cleaved linker. The method, then:
According to the concentration of ADC samples, transfer 25 μg of each ADC sample to a new microcentrifuge tube and add water to a total volume of 10 μL. Dilute 20 uL of papain suspension (10 mg/mL) with 180 uL of papain digestion buffer, incubate at 37° C. for 30 min. Dilute 30 uL of papain (nominal concentration of 1 mg/mL) with 120 uL of activation buffer to a nominal concentration of 0.2 mg/mL. Measure papain concentration with UV (ultra-violate) measurement at 280 nm and 320 nm using papain activation buffer as the blank buffer. Dilute activated papain to a final concentration of 0.1 mg/mL with papain activation buffer. Add 1.25 uL of 0.1 mg/mL papain solution (enzyme:substrate ratio is 1:200) to intact ADC, incubate at 37° C. for 1 h. Add 0.5 μL of 0.1 M TCEP-HCl to each sample. Vortex the samples for 3 seconds, and then spin down the samples using a Minicentrifuge for 3 seconds. Incubate samples at 95° C. for 20 minutes with shaking at 800 rpm in a thermomixer. Following incubation, cool down the samples to room temperature for 5 minutes. Spin down the condensation using a Minicentrifuge for 3 seconds. Add 6 μL of 8 M urea in 1 M Tris-HCl, pH 7.5 to each sample. […]
Papain was used to remove the payloads of MAB1-LK1 ADCs. […] Two tryptic peptides, e.g., SCDK (serine-cysteine-aspartic acid-lysine) (SEQ ID NO: 7) and GEC (glycine-glutamic acid-cysteine), were analyzed using LC-MS. […]

On to mal-amido-Val-Cit-PABA [LK3], for which the “incubation time for completion of papain digestion to remove drug payloads (cleaved linker monitored)” value was “one”. As for mal-amido-PEG8-VA-PABA [LK1], the entry is “one”.
